Experimental data published in US20220064141A1, “BENZOPYRIDONE HETEROCYCLIC COMPOUND AND USE THEREOF” (BrightGene Bio-Medical Technology Co., Ltd., priority 2019, published 2022).

Key:
[1] = tested on: A549 human non-small cell lung cancer cells with high expression of KRAS G12S; experiment: Cell Titer-Glo cell viability, A549 cells (72 h); format: cell-based
Text: (§1) Effect Example 2: Pharmacodynamic Assay 2 (Determination of the efficacy of the compounds of the present disclosure on HCT116 human colon cancer cells with high expression of KRAS G13D and A549 human non-small cell lung cancer cells with high expression of KRAS G12S)
(§2) The following method was used to determine the effects of the compounds of the present disclosure on tumor cell proliferation.
(§3) For KRAS G13D subtype, HCT116 human colon cancer cell was used. For KRAS G12S subtype, A549 human non-small cell lung cancer cell was used. The efficacy of the compounds in inhibiting cancer cell viability was determined. HCT116 cells or A549 cells were cultured in a DMEM medium containing 10% fetal bovine serum, 100 U penicillin and […] streptomycin. The cells were cultured in an incubator with 5% CO2 at 37° C. Cancer cell viability was evaluated by determining the content of ATP with Cell Titer-Glo® kit (Luminescent Cell Viability Assay kit, please refer to the manufacturer's instructions for use) and evaluating the inhibition of cell growth.
(§4) The experimental method was proceeded in accordance with the steps in the instructions for the kit, and was described briefly as follows. The test compounds were first dissolved in DMSO to prepare stock solutions, and then the stock solutions were subjected to gradient dilution with the culture media of the corresponding cells, thereby preparing test samples. The final concentrations of the compounds were in the range of 30 μM to 0.01 nM. Tumor cells in logarithmic growth phase were seeded into a 96-well cell culture plate at an appropriate density. After the cell culture plate was left overnight in an incubator with 5% CO2 at 37° C., the test compound samples were added thereto and then the cells were further cultured for 72 hours. After the incubation was complete, an appropriate volume of Cell Titer-Glo® reagent was added into each well, and the cells were incubated at 37° C. for 1 to 4 hours. Then, the […] was read on a microplate reader. The percentage inhibition rates of the compounds at each concentration point were calculated by comparing the absorbance values of the sample wells with that of the control group (0.3% DMSO), and then non-linear regression analysis of the concentration of the compound vs inhibition rate was performed by using GraphPad Prism 5 software, thereby obtaining IC50 values indicating the inhibitory effects of the compounds on cell proliferation.

[2] = tested on: HCT116 human colon cancer cells with high expression of KRAS G13D; experiment: Cell Titer-Glo cell viability, HCT116 cells (72 h); format: cell-based; conditions: HCT-116
Text: as §1, §2, §3, §4

C=CC(=O)N1CCN(c2c(C#N)c(=O)n(-c3ccccc3C(C)C)c3cc(-c4c(C)ccc5[nH]ncc45)c(Cl)cc23)[C@@H](C)C1 (single isomer, unassigned) [Compound I-2-2]
IC50 [1]: > 3000 nM
IC50 [2]: > 3000 nM
